Earlier results on two molecules are cited in patent US8362266B2, “Method of manufacturing a ruthenium complex” (Niiki Pharma Inc., priority 2007, dated 2013).

Structures are written as SMILES.

In this data set the test system is broad spectrum of cancer cells. Particulars: background statement citing Kapitza et al., J. Cancer Res. Clin. Oncol. 131(2):101-10 (2005).

Regarding `[Cl-].[Cl-].[Cl-].[Cl-].[Ru+3].c1ccc2[nH][nH+]cc2c1.c1ccc2[nH]ncc2c1.c1ccc2[nH]ncc2c1` [KP1099, indazolium trans-[tetrachlorobis(1H-indazole)ruthenate (III)]], the inducing apoptosis entry is reported as “highly potent”.
With `[Cl][Ru-]([Cl])([Cl])[Cl].[Na+].c1ccc2[nH]ncc2c1.c1ccc2[nH]ncc2c1` [KP1339, sodium trans-[tetrachlorobis(1H-indazole)ruthenate (III)]], the inducing apoptosis result is given as “highly potent”.
